Source: patent publication US20240252677A1, “ONE-COMPONENT DELIVERY SYSTEM FOR NUCLEIC ACIDS” (The Trustees of the University of Pennsylvania, priority 2021, published 2024)

Key:
[1] = Stability of DNPs by DLS after storage at 5° C.; assay type: physicochemical; set-up: key to Original size distribution type (DLS curve) / Size distribution type (DLS curve): U: DLS curve showed unimodal size distribution; B: DLS curve showed bimodal size distribution; M: DLS curve showed multimodal size distribution; conditions: for pH Sample: DNPs: IAJD 4.0 mg/mL + Luc-mRNA 0.1 mg/mL, injection in acetate buffer pH 4.00; for PDI / Size (d, nm) / Original size distribution type (DLS curve): IAJD 4.0 mg/mL + Luc-mRNA 0.1 mg/mL; for PDI / Size (d, nm): acetate buffer; for Original size distribution type (DLS curve): before storage, acetate buffer pH 4.00
Procedure, shortened: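 DNPs in acetate buffer sized by DLS after storage at 5 °C. Stability ranked Excellent, Good or Not stable according to retention, shrinkage or growth of original size and narrowing or broadening of size distribution.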

[2] = pKa measurements of individual IAJD molecules by titration; assay type: physicochemical; conditions: ethanol saturated with NaCl, titrated with 0.1 M aqueous HCl; individual IAJD molecules, titration
Procedure, shortened: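 Compound dissolved at 1.5 mg/mL in NaCl-saturated ethanol and titrated with 0.1 M HCl in 7.5 μL steps, pH read by electrode after each addition. pKa taken from the half-equivalence point.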

lung = assay: In vivo mRNA delivery, IVIS imaging of organs: lung; set-up: species or system mice; key to Organs with luminescence: lung: strong: Strong meant the luminescence intensity in that organ was relatively high, compared to other organs; weak: Weak meant the luminescence intensity in that organ was relatively low, compared to other organs; conditions: Table 17; mice, IVIS, 4-6 h after injection; intensity relative to other organs
liver = assay: In vivo mRNA delivery, IVIS imaging of organs: liver; set-up: species or system mice; key to Organs with luminescence: liver: strong: Strong meant the luminescence intensity in that organ was relatively high, compared to other organs; weak: Weak meant the luminescence intensity in that organ was relatively low, compared to other organs; conditions: Table 17; mice, IVIS, 4-6 h after injection; intensity relative to other organs
[3] = Dimensions (size, PDI) of DNPs co-assembled from IAJDs and Luc-mRNA by DLS; assay type: physicochemical
Procedure, shortened: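 IAJDs (80 mg/mL ethanol stock) rapidly injected into Luc-mRNA (4.0 mg/mL stock) diluted in 10 mM acetate buffer pH 4.0, then vortexed 5 s. Size and polydispersity of resulting DNPs measured by DLS (633 nm laser, 175° detection) at 23 °C.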

[4] = Stability of DNPs by DLS after storage at 5° C.; assay type: physicochemical; set-up: key: Excellent: the original sizes and distribution types remained almost the same after storage; Good: the original sizes and distribution types changed slightly (size difference was less than 100 nm) or the original size remained almost the same but the DLS curve showed more size distributions after storage
Method: The stability of the DNPs as assayed by DLS. All the samples are prepared in acetate buffer. The stabilities of the constructs were ranked: Excellent (in bold)—the original sizes and distribution remains almost the same after storage; Good—the original relatively big sizes became smaller or broad size distribution became narrower; Not stable—the original relatively big sizes or broad size distribution remained almost the similar level, or the original relatively small sizes became bigger or narrow size distribution became broader.

[5] = Table 16, DNPs from IAJD 4 mg/mL and Luc-mRNA 0.10 mg/mL by injection in acetate buffer (10 mM, pH 4.0)
[6] = Table 17, DNPs used in vivo, IAJD 4 mg/mL, Luc-mRNA 0.10 mg/mL, acetate pH 4.0

SMILES | pH Sample [1] | Original size distribution type (DLS curve) [1] | pKa [2] | PDI [3, 5] | Size (d, nm) [3, 5] [nm] | PDI [3, 6] | Size (d, nm) [3, 6] [nm] | Size distribution type (DLS curve) ([1]; after 62 days at 5° C.) | PDI ([1]; after 62 days at 5° C.) | Size (d, nm) ([1]; after 62 days at 5° C.) [nm] | Ranking of stability ([4]; after 62 days at 5° C.) | Size distribution type (DLS curve) ([1]; after 70 days at 5° C.) | PDI ([1]; after 70 days at 5° C.) | Size (d, nm) ([1]; after 70 days at 5° C.) [nm] | Ranking of stability ([4]; after 70 days at 5° C.) | Organs with luminescence: lung (lung) | Organs with luminescence: liver (liver) | also measured
CCCCCCCCCCCOc1cc(COC(=O)CCCN2CCN(C)CC2)cc(OCCCCCCCCCC)c1 [IAJD 114, 3-(Decyloxy)-5-(undecyloxy)benzyl 4-(4-methylpiperazin-1-yl)butanoate] | 4.46 | (U) | 6.43 | 0.351 | 105 | 0.351 | 105 | – | – | – | – | – | – | – | – | Lung (weak), | liver (weak), | Size distribution type (DLS curve) ([1]; after 75 days at 5° C.): (B); PDI ([1]; after 75 days at 5° C.): 0.369; Size (d, nm) ([1]; after 75 days at 5° C.): 107 nm; Ranking of stability ([4]; after 75 days at 5° C.): Good
CCCCCCCCCCCCCOc1cc(COC(=O)CCCN2CCN(CCO)CC2)cc(OCCCCCCCCCCC)c1 [IAJD 117, 3-(Tridecyloxy)-5-(undecyloxy)benzyl 4-(4-(2-hydroxyethyl)piperazin-1-yl)butanoate] | 4.40 | (B) | 6.49 | 0.367 | 255 | 0.367 | 255 | – | – | – | – | (B) | 0.312 | 323 | Excellent | Lung (weak), | liver (weak), | –
CCCCCCCCCCCCCCCOc1cc(COC(=O)CCCN2CCN(CCO)CC2)cc(OCCCCCCCCCCC)c1 [IAJD 119, 3-(Pentadecyloxy)-5-(undecyloxy)benzyl 4-(4-(2-hydroxyethyl)piperazin-1-yl)butanoate] | 4.36 | (M) | 6.44 | 0.459 | 163 | 0.459 | 163 | (B) | 0.489 | 254 | Good | – | – | – | – | Lung (weak), | liver (weak), | –
CCCCCCCCCCCCCCOc1cc(COC(=O)CCCN2CCN(CCO)CC2)cc(OCCCCCCCCCCC)c1 [IAJD 125, 3-(Tetradecyloxy)-5-(undecyloxy)benzyl 4-(4-(2-hydroxyethyl)piperazin-1-yl)butanoate] | 4.44 | (U) | 6.64 | 0.300 | 255 | 0.300 | 255 | (U) | 0.283 | 276 | Excellent | – | – | – | – | Lung (weak), | liver (weak), | –
CCCCCCCCCCCCCCCCCOc1cc(COC(=O)CCCN2CCN(CCO)CC2)cc(OCCCCCCCCCCC)c1 [IAJD 127, 3-(Heptadecyloxy)-5-(undecyloxy)benzyl 4-(4-(2-hydroxyethyl)piperazin-1-yl)butanoate] | 4.46 | (U) | 6.52 | 0.270 | 276 | 0.270 | 276 | (B) | 0.248 | 263 | Good | – | – | – | – | Lung (weak), | liver (weak), | –
CCCCCCCCCCCCCCCCCCOc1cc(COC(=O)CCCN2CCN(CCO)CC2)cc(OCCCCCCCCCCC)c1 [IAJD 128, 3-(Octadecyloxy)-5-(undecyloxy)benzyl 4-(4-(2-hydroxyethyl)piperazin-1-yl)butanoate] | 4.40 | (B) | 6.68 | 0.381 | 291 | 0.381 | 291 | – | – | – | – | (B) | 0.459 | 210 | Excellent | Lung (weak), | liver (weak), | –
CCCCCCCCCCCOc1cc(COC(=O)CCCN2CCN(CCO)CC2)cc(OCC(CC)CCCC)c1 (stereo not shown) [IAJD 130, 3-((2-Ethylhexyl)oxy)-5-(undecyloxy)benzyl 4-(4-(2-hydroxyethyl)piperazin-1-yl)butanoate] | 4.50 | (U) | 6.62 | 0.271 | 172 | 0.271 | 172 | (U) | 0.282 | 149 | Excellent | – | – | – | – | Lung (weak), | liver (weak), | –

Now from value to molecule, other results behind:

pH Sample [1] | Original size distribution type (DLS curve) [1] | pKa [2] | PDI [3, 5] | Size (d, nm) [3, 5] [nm] | PDI [3, 6] | Size (d, nm) [3, 6] [nm] | Size distribution type (DLS curve) ([1]; after 62 days at 5° C.) | PDI ([1]; after 62 days at 5° C.) | Size (d, nm) ([1]; after 62 days at 5° C.) [nm] | Ranking of stability ([4]; after 62 days at 5° C.) | Size distribution type (DLS curve) ([1]; after 70 days at 5° C.) | PDI ([1]; after 70 days at 5° C.) | Size (d, nm) ([1]; after 70 days at 5° C.) [nm] | Ranking of stability ([4]; after 70 days at 5° C.) | SMILES | Organs with luminescence: lung (lung) | Organs with luminescence: liver (liver) | also measured
4.47 | (U) | 6.51 | 0.264 | 150 | 0.264 | 150 | (U) | 0.272 | 168 | Excellent | – | – | – | – | CCCCCCCCCCCCCOc1cc(COC(=O)CCCN2CCN(C)CC2)cc(OCCCCCCCCCCC)c1 [IAJD 116, 3-(Tridecyloxy)-5-(undecyloxy)benzyl 4-(4-methylpiperazin-1-yl)butanoate] | Lung (weak), | liver (weak), | –
4.43 | (B) | 6.33 | 0.278 | 104 | 0.278 | 104 | – | – | – | – | – | – | – | – | CCCCCCCCCCCCCCCOc1cc(COC(=O)CCCN2CCN(C)CC2)cc(OCCCCCCCCCCC)c1 [IAJD 118, 3-(Pentadecyloxy)-5-(undecyloxy)benzyl 4-(4-methylpiperazin-1-yl)butanoate] | Lung (weak), | liver (weak), | Size distribution type (DLS curve) ([1]; after 75 days at 5° C.): (B); PDI ([1]; after 75 days at 5° C.): 0.262; Size (d, nm) ([1]; after 75 days at 5° C.): 105 nm; Ranking of stability ([4]; after 75 days at 5° C.): Excellent
4.48 | (U) | 6.52 | 0.247 | 158 | 0.247 | 158 | – | – | – | – | (U) | 0.239 | 154 | Excellent | CCCCCCCCCCCCCCCCCOc1cc(COC(=O)CCCN2CCN(C)CC2)cc(OCCCCCCCCCCC)c1 [IAJD 126, 3-(Heptadecyloxy)-5-(undecyloxy)benzyl 4-(4-methylpiperazin-1-yl)butanoate] | Lung (weak), | liver (weak), | –
